Measured values published in publication PMC8745178, “Methyl 2-Halo-4-Substituted-5-Sulfamoyl-Benzoates as High Affinity and Selective Inhibitors of Carbonic Anhydrase IX” (International Journal of Molecular Sciences, 2021).

Tests used:
CAI = CAI (Homo sapiens, UniProt P00915); assay: fluorescent thermal shift assay (FTSA), CAI; type: binding; details: 37 °C; for ΔGintr CAI: converted from Kd_intr, independent of pH; for ΔGobs CAI: converted from Kd_obs, pH 7.0, FTSA
CAII = CAII (Homo sapiens, UniProt P00918); assay: fluorescent thermal shift assay (FTSA), CAII; type: binding; details: 37 °C; for ΔGintr CAII: converted from Kd_intr, independent of pH; for ΔGobs CAII: converted from Kd_obs, pH 7.0, FTSA
CAIII = CAIII (Homo sapiens, UniProt P07451); assay: fluorescent thermal shift assay (FTSA), CAIII; type: binding; details: 37 °C; for ΔGintr CAIII: converted from Kd_intr, independent of pH; for ΔGobs CAIII: converted from Kd_obs, pH 7.0, FTSA
CAIV = CAIV (Homo sapiens, UniProt P22748); assay: fluorescent thermal shift assay (FTSA), CAIV; type: binding; details: 37 °C; for ΔGintr CAIV: converted from Kd_intr, independent of pH; for ΔGobs CAIV: converted from Kd_obs, pH 7.0, FTSA
CAVA = CAVA (Homo sapiens, UniProt P35218); assay: fluorescent thermal shift assay (FTSA), CAVA; type: binding; details: 37 °C; for ΔGintr CAVA: converted from Kd_intr, independent of pH; for ΔGobs CAVA: converted from Kd_obs, pH 7.0, FTSA
CAVB = CAVB (Homo sapiens, UniProt Q9Y2D0); assay: fluorescent thermal shift assay (FTSA), CAVB; type: binding; details: 37 °C; for ΔGintr CAVB: converted from Kd_intr, independent of pH; for ΔGobs CAVB: converted from Kd_obs, pH 7.0, FTSA
CAVI = CAVI (Homo sapiens, UniProt P23280); assay: fluorescent thermal shift assay (FTSA), CAVI; type: binding; details: 37 °C; for ΔGintr CAVI: converted from Kd_intr, independent of pH; for ΔGobs CAVI: converted from Kd_obs, pH 7.0, FTSA
CAVII = CAVII (Homo sapiens, UniProt P43166); assay: fluorescent thermal shift assay (FTSA), CAVII; type: binding; details: 37 °C; for ΔGintr CAVII: converted from Kd_intr, independent of pH; for ΔGobs CAVII: converted from Kd_obs, pH 7.0, FTSA
CAIX = CAIX (Homo sapiens, UniProt Q16790); assay: fluorescent thermal shift assay (FTSA), CAIX; type: binding; details: for ΔGobs CAIX: pH 7
CAXII = CAXII (Homo sapiens, UniProt O43570); assay: fluorescent thermal shift assay (FTSA), CAXII; type: binding; details: 37 °C; for ΔGintr CAXII: converted from Kd_intr, independent of pH; for ΔGobs CAXII: converted from Kd_obs, pH 7.0, FTSA
CAXIII = CAXIII (Homo sapiens, UniProt Q8N1Q1); assay: fluorescent thermal shift assay (FTSA), CAXIII; type: binding; details: 37 °C; for ΔGobs CAXIII: converted from Kd_obs, pH 7.0, FTSA; for ΔGintr CAXIII: converted from Kd_intr, independent of pH
CAXIV = CAXIV (Homo sapiens, UniProt Q9ULX7); assay: fluorescent thermal shift assay (FTSA), CAXIV; type: binding; details: 37 °C; for ΔGintr CAXIV: converted from Kd_intr, independent of pH; for ΔGobs CAXIV: converted from Kd_obs, pH 7.0, FTSA
[1] = determination of pKa of the sulfonamide group by UV-VIS spectra at various pH; type: physicochemical; details: for f RSO2NH-, fraction of deprotonated sulfonamide: at pH 7.0, calculated from pKa; for pKa: calculated from spectra at various pH, 37 °C
[2] = solubility observed visually and in absorption spectra; type: physicochemical; parameters: key: low solubility, LS

Chain of CAXIV (Q9ULX7 16-337): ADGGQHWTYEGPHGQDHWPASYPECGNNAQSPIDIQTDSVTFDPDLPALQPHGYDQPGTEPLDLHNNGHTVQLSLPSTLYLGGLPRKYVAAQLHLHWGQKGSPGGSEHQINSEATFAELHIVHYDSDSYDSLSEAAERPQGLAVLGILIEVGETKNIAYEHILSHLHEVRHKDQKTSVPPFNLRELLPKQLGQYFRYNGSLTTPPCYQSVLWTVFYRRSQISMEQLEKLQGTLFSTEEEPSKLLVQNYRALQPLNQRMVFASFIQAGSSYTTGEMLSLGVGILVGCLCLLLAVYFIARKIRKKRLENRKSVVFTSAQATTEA
Chain of CAVI (P23280 18-308): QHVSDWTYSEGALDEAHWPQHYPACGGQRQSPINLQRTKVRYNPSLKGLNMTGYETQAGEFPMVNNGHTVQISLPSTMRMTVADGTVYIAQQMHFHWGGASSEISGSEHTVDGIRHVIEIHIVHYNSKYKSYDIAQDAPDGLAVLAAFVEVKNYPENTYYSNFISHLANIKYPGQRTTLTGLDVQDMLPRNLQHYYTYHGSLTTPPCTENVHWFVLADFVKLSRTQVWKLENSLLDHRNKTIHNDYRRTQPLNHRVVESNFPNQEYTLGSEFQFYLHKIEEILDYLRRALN
Chain of CAVII (P43166 whole entry): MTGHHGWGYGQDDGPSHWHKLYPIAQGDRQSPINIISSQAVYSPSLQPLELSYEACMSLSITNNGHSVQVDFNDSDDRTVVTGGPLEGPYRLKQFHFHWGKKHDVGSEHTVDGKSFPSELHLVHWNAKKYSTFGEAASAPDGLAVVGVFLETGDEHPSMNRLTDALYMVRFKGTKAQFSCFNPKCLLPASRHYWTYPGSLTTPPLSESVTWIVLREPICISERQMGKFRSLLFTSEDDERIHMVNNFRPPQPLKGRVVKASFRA
Chain of CAIV (P22748 19-312): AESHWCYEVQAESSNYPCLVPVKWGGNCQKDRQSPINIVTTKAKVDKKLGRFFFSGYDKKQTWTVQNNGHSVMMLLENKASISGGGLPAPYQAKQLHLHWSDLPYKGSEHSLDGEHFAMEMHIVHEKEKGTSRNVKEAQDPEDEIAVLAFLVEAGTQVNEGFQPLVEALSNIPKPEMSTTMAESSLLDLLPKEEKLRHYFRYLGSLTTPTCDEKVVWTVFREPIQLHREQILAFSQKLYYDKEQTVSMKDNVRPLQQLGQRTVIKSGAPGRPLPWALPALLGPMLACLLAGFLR
Chain of CAXII (O43570 25-354): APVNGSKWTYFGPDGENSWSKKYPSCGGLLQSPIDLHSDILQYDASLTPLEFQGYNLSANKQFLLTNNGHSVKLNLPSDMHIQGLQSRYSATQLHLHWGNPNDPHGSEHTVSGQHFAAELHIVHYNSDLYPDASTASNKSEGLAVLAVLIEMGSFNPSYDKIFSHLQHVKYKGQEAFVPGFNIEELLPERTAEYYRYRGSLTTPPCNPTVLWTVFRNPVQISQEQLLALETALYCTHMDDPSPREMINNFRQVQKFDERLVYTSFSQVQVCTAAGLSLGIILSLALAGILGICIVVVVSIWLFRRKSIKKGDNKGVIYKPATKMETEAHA
Chain of CAI (P00915 whole entry): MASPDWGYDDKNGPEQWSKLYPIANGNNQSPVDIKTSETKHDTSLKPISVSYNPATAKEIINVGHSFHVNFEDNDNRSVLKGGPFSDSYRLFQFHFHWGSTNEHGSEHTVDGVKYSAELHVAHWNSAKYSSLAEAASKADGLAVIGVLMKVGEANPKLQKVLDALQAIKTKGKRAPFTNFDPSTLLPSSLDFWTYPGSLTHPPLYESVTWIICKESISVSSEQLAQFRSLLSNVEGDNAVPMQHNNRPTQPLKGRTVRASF
Chain of CAVA (P35218 39-305): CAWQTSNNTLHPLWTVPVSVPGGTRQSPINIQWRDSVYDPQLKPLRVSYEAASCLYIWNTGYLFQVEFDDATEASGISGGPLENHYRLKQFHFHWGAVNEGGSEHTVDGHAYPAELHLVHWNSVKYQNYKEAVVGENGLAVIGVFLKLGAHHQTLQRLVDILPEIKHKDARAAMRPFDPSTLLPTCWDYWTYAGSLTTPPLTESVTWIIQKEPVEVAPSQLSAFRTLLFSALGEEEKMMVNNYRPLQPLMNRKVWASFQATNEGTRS
Chain of CAVB (Q9Y2D0 34-317): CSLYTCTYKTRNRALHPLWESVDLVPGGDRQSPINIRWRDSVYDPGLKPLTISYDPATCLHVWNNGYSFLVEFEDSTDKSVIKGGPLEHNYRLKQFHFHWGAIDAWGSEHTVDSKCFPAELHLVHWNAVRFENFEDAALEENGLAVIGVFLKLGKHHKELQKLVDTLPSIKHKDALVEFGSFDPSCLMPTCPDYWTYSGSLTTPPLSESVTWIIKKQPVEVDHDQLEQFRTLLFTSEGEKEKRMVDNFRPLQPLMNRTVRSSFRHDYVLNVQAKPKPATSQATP
Chain of CAIII (P07451 whole entry): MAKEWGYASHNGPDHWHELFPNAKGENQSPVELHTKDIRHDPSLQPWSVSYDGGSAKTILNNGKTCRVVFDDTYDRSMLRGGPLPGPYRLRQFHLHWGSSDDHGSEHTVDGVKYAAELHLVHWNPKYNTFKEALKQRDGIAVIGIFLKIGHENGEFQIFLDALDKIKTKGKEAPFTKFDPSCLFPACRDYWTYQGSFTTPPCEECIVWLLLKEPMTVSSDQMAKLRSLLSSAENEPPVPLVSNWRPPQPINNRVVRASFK
Chain of CAXIII (Q8N1Q1 whole entry): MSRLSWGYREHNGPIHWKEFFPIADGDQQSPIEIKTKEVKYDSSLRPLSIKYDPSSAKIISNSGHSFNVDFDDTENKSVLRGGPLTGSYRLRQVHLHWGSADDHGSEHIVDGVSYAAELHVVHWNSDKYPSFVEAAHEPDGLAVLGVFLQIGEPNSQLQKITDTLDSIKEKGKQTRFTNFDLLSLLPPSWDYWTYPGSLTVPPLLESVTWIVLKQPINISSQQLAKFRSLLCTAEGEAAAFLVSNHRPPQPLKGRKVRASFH

| Compound | ΔGintr CAI (CAI) | ΔGobs CAI (CAI) | ΔGintr CAII (CAII) | ΔGobs CAII (CAII) | ΔGintr CAIII (CAIII) | ΔGobs CAIII (CAIII) | ΔGintr CAIV (CAIV) | ΔGobs CAIV (CAIV) | ΔGintr CAVB (CAVB) | ΔGobs CAVB (CAVB) | ΔGintr CAVI (CAVI) | ΔGobs CAVI (CAVI) | ΔGobs CAVII (CAVII) | ΔGobs CAIX (CAIX) | ΔGintr CAXII (CAXII) | ΔGobs CAXII (CAXII) | ΔGobs CAXIII (CAXIII) | ΔGintr CAXIV (CAXIV) | ΔGobs CAXIV (CAXIV) | f RSO2NH-, fraction of deprotonated sulfonamide [1] | other results |
| --- | --- | --- | --- | --- | --- | --- | --- | --- | --- | --- | --- | --- | --- | --- | --- | --- | --- | --- | --- | --- | --- |
| COC(=O)c1cc(S(N)(=O)=O)c(Cl)cc1Cl [Compound 1, Methyl 2,4-dichloro-5-sulfamoyl-benzoate] | -9.63 kcal/mol | -6.88 kcal/mol | -13.3 kcal/mol | -10.1 kcal/mol | -9.68 kcal/mol | -6.09 kcal/mol | -13 kcal/mol | -9.56 kcal/mol | -12.4 kcal/mol | -9.23 kcal/mol | -13.8 kcal/mol | -9.61 kcal/mol | -10.2 kcal/mol | -10.3 kcal/mol | -12.2 kcal/mol | -8.87 kcal/mol | -10 kcal/mol | -13.4 kcal/mol | -10.1 kcal/mol | 1.2% | ΔGintr CAVA (CAVA): -10.3 kcal/mol; ΔGobs CAVA (CAVA): -7.34 kcal/mol; ΔGintr CAVII (CAVII): -13.5 kcal/mol; ΔGintr CAIX (CAIX): -13.7 kcal/mol; pKa [1]: 8.9 |
| COC(=O)c1cc(S(N)(=O)=O)c(Cl)cc1Sc1ccccc1 [Compound 5a, Methyl 4-chloro-2-(phenylsulfanyl)-5-sulfamoylbenzoate] | -11.2 kcal/mol | -7.77 kcal/mol | -14.5 kcal/mol | -10.6 kcal/mol | – | – | -15.3 kcal/mol | -11.1 kcal/mol | -13.2 kcal/mol | -9.37 kcal/mol | -14.4 kcal/mol | -9.51 kcal/mol | -10.3 kcal/mol | -12.2 kcal/mol | -15.7 kcal/mol | -11.7 kcal/mol | -10.9 kcal/mol | -14.9 kcal/mol | -10.9 kcal/mol | 0.4% | ΔGintr CAVA (CAVA): ≥ -8.91 kcal/mol; ΔGobs CAVA (CAVA): ≥ -5.26 kcal/mol; ΔGintr CAVII (CAVII): -14.4 kcal/mol; ΔGintr CAIX (CAIX): -16.4 kcal/mol; solubility [2]: LS |
| COC(=O)c1cc(S(N)(=O)=O)c(Cl)cc1SCc1ccccc1 [Compound 5c, Methyl 2-benzylsulfanyl-4-chloro-5-sulfamoylbenzoate] | -11.5 kcal/mol | -8.08 kcal/mol | -14.5 kcal/mol | -10.6 kcal/mol | ≥ -9.54 kcal/mol | ≥ -5.26 kcal/mol | – | – | -12.8 kcal/mol | -8.99 kcal/mol | – | -9.3 kcal/mol | -9.8 kcal/mol | -11.1 kcal/mol | -13.1 kcal/mol | -9.08 kcal/mol | -9.94 kcal/mol | -14.4 kcal/mol | -10.4 kcal/mol | 0.4% | ΔGintr CAVII (CAVII): -13.8 kcal/mol; ΔGintr CAIX (CAIX): -15.3 kcal/mol; ΔGintr CAXIII (CAXIII): -13.4 kcal/mol; solubility [2]: LS |
| COC(=O)c1cc(S(N)(=O)=O)c(Cl)cc1Sc1cccc2ccccc12 [Compound 5f, Methyl 4-chloro-2-(1-naphthylsulfanyl)-5-sulfamoyl-benzoate] | -9.94 kcal/mol | -6.5 kcal/mol | -13.8 kcal/mol | -9.87 kcal/mol | ≥ -9.54 kcal/mol | ≥ -5.26 kcal/mol | -10.1 kcal/mol | -5.93 kcal/mol | -12.8 kcal/mol | -8.91 kcal/mol | -11.8 kcal/mol | -6.88 kcal/mol | -8.46 kcal/mol | -10.9 kcal/mol | – | – | -10.3 kcal/mol | -9.94 kcal/mol | -5.95 kcal/mol | 0.4% | ΔGintr CAVA (CAVA): -9.37 kcal/mol; ΔGobs CAVA (CAVA): -5.71 kcal/mol; ΔGintr CAIX (CAIX): -15.1 kcal/mol; ΔGintr CAXIII (CAXIII): -13.7 kcal/mol; solubility [2]: LS |
| COC(=O)c1cc(S(N)(=O)=O)c(Br)cc1Sc1ccccc1 [Compound 6a, Methyl 4-bromo-2-(phenylsulfanyl)-5-sulfamoylbenzoate] | -11.4 kcal/mol | -7.96 kcal/mol | -14 kcal/mol | -10.1 kcal/mol | ≥ -9.54 kcal/mol | ≥ -5.26 kcal/mol | -14.7 kcal/mol | -10.5 kcal/mol | -14.5 kcal/mol | -10.7 kcal/mol | -13.9 kcal/mol | -9.06 kcal/mol | -9.46 kcal/mol | -11.4 kcal/mol | -14.9 kcal/mol | -10.9 kcal/mol | -11.1 kcal/mol | -15.2 kcal/mol | -11.2 kcal/mol | 0.4% | ΔGintr CAVA (CAVA): -9.44 kcal/mol; ΔGobs CAVA (CAVA): -5.76 kcal/mol; ΔGintr CAVII (CAVII): -13.5 kcal/mol; ΔGintr CAIX (CAIX): -15.5 kcal/mol; ΔGintr CAXIII (CAXIII): -14.5 kcal/mol; solubility [2]: LS |
| COC(=O)c1cc(S(N)(=O)=O)c(S(=O)(=O)C2CCCCC2)cc1Br [Compound 8b, Methyl 2-bromo-4-cyclohexylsulfonyl-5-sulfamoylbenzoate] | ≥ -9.42 kcal/mol | ≥ -5.26 kcal/mol | ≥ -9.87 kcal/mol | ≥ -5.26 kcal/mol | ≥ -10.3 kcal/mol | ≥ -5.26 kcal/mol | -11 kcal/mol | -6.17 kcal/mol | ≥ -9.8 kcal/mol | ≥ -5.26 kcal/mol | ≥ -10.9 kcal/mol | ≥ -5.26 kcal/mol | ≥ -5.26 kcal/mol | -7.34 kcal/mol | ≥ -9.94 kcal/mol | ≥ -5.26 kcal/mol | -5.88 kcal/mol | ≥ -9.94 kcal/mol | ≥ -5.26 kcal/mol | 0.1% | ΔGintr CAVA (CAVA): ≥ -9.61 kcal/mol; ΔGobs CAVA (CAVA): ≥ -5.26 kcal/mol; ΔGintr CAVII (CAVII): ≥ -9.94 kcal/mol; ΔGintr CAIX (CAIX): -51.2; ΔGintr CAXIII (CAXIII): -10.1 kcal/mol; pKa [1]: 9.9 |
| COC(=O)c1cc(S(N)(=O)=O)c(Cl)cc1S(=O)(=O)Cc1ccccc1 [Compound 9c, Methyl 2-benzylsulfonyl-4-chloro-5-sulfamoylbenzoate] | -10.7 kcal/mol | -8.87 kcal/mol | -14 kcal/mol | -11.8 kcal/mol | -11.6 kcal/mol | -9.01 kcal/mol | -12.5 kcal/mol | -9.94 kcal/mol | -14.9 kcal/mol | -12.7 kcal/mol | -14.3 kcal/mol | -11.1 kcal/mol | -12.2 kcal/mol | -12.2 kcal/mol | -13.2 kcal/mol | -10.9 kcal/mol | -11.8 kcal/mol | -14.5 kcal/mol | -12.2 kcal/mol | 5.9% | ΔGintr CAXIII (CAXIII): -13.6 kcal/mol; pKa [1]: 8.2 |
| COC(=O)c1cc(S(N)(=O)=O)c(Cl)cc1S(=O)(=O)c1cccc2ccccc12 [Compound 9f, Methyl 4-chloro-2-(1-naphthylsulfonyl)-5-sulfamoylbenzoate] | -11.8 kcal/mol | -9.7 kcal/mol | -15.2 kcal/mol | -12.6 kcal/mol | – | – | -13.1 kcal/mol | -10.3 kcal/mol | -14.5 kcal/mol | -12 kcal/mol | -13.4 kcal/mol | -9.94 kcal/mol | -13 kcal/mol | -11.4 kcal/mol | -13 kcal/mol | -10.4 kcal/mol | -12.6 kcal/mol | -14.5 kcal/mol | -11.9 kcal/mol | 3.8% | ΔGintr CAVII (CAVII): -15.6 kcal/mol; ΔGintr CAXIII (CAXIII): -14.7 kcal/mol; pKa [1]: 8.4 |
